Assay results as given in PMC11277489, “Novel Piperazine Derivatives of Vindoline as Anticancer Agents” (International Journal of Molecular Sciences, 2024).

What was measured:
SR = assay: NCI60 one-dose screen (10 μM), Leukemia; type: cell-based; conditions: Homo sapiens, 10 μM, Leukemia, read-out: Growth percent rate
HOP-92 [1] = assay: NCI60 one-dose screen (10 μM), Non-small Cell Lung Cancer; type: cell-based; conditions: Homo sapiens; 10 μM; HOP-92, Non-small Cell Lung Cancer; read-out: Growth percent rate
NCI-H226 [2] = assay: as above; type: cell-based; conditions: Homo sapiens; 10 μM; NCI-H226, Non-small Cell Lung Cancer; read-out: Growth percent rate
SF-268 [3] = assay: NCI60 one-dose screen (10 μM), CNS Cancer; type: cell-based; conditions: Homo sapiens; 10 μM; SF-268, CNS Cancer; read-out: Growth percent rate
LOX IMVI [4] = assay: NCI60 one-dose screen (10 μM), Melanoma; type: cell-based, human; conditions: Homo sapiens; 10 μM; LOX IMVI, Melanoma; read-out: Growth percent rate
UACC-62 = assay: NCI60 one-dose screen (10 μM), Melanoma; type: cell-based; conditions: Homo sapiens; 10 μM; UACC-62, Melanoma; read-out: Growth percent rate
OVCAR-4 [5] = assay: NCI60 one-dose screen (10 μM), Ovarian Cancer; type: cell-based; conditions: Homo sapiens; 10 μM; OVCAR-4, Ovarian Cancer; read-out: Growth percent rate
OVCAR-5 = assay: NCI60 one-dose screen (10 μM), Ovarian Cancer; type: cell-based; conditions: Homo sapiens; 10 μM; OVCAR-5, Ovarian Cancer; read-out: Growth percent rate
NCI/ADR-RES [6] = assay: NCI60 one-dose screen (10 μM), Ovarian Cancer; type: cell-based; conditions: Homo sapiens, 10 μM, Ovarian Cancer, read-out: Growth percent rate
SK-OV-3 = assay: NCI60 one-dose screen (10 μM), Ovarian Cancer; type: cell-based; conditions: Homo sapiens; 10 μM; SK-OV-3, Ovarian Cancer; read-out: Growth percent rate
RXF 393 = assay: NCI60 one-dose screen (10 μM), Renal Cancer; type: cell-based, human; conditions: Homo sapiens; 10 μM; RXF 393, Renal Cancer; read-out: Growth percent rate
UO-31 = assay: NCI60 one-dose screen (10 μM), Renal Cancer; type: cell-based; conditions: Homo sapiens; 10 μM; UO-31, Renal Cancer; read-out: Growth percent rate
PC-3 = assay: NCI60 one-dose screen (10 μM), Prostate Cancer; type: cell-based; conditions: Homo sapiens; 10 μM; PC-3, Prostate Cancer; read-out: Growth percent rate
DU-145 = assay: NCI60 one-dose screen (10 μM), Prostate Cancer; type: cell-based; conditions: Homo sapiens; 10 μM; DU-145, Prostate Cancer; read-out: Growth percent rate
MDA-MB-231/ATCC = assay: NCI60 one-dose screen (10 μM), Breast Cancer; type: cell-based, human; conditions: Homo sapiens; 10 μM; MDA-MB-231/ATCC, Breast Cancer; read-out: Growth percent rate
BT-549 = assay: NCI60 one-dose screen (10 μM), Breast Cancer; type: cell-based; conditions: Homo sapiens; 10 μM; BT-549, Breast Cancer; read-out: Growth percent rate
T-47D [7] = assay: NCI60 one-dose screen (10 μM), Breast Cancer; type: cell-based; conditions: Homo sapiens, T47D; 10 μM; T-47D, Breast Cancer; read-out: Growth percent rate
MDA-MB-468 = assay: NCI60 one-dose screen (10 μM), Breast Cancer; type: cell-based; conditions: Homo sapiens; 10 μM; MDA-MB-468, Breast Cancer; read-out: Growth percent rate
[8] = tested on: 60 human tumor cell lines (NCI60); assay: NCI60 one-dose screen (10 μM), whole panel; type: cell-based; conditions: for activity at 10 µM: mean over 60 human cancer cell lines, read-out: Growth percent rate, Mean
HL-60(TB) = assay: NCI60 five-dose screen, Leukemia; type: cell-based; conditions: Homo sapiens; HL-60(TB), Leukemia; five-dose screen; read-out: GI50
K-562 = assay: NCI60 five-dose screen, Leukemia; type: cell-based; conditions: Homo sapiens, K562; K-562, Leukemia; five-dose screen; read-out: GI50
HOP-92 [9] = assay: NCI60 five-dose screen, Non-small Cell Lung Cancer; type: cell-based; conditions: Homo sapiens; HOP-92, Non-small Cell Lung Cancer; five-dose screen; read-out: GI50
NCI-H226 [10] = assay: NCI60 five-dose screen, Non-small Cell Lung Cancer; type: cell-based; conditions: Homo sapiens; NCI-H226, Non-small Cell Lung Cancer; five-dose screen; read-out: GI50
NCI-H23 = assay: NCI60 five-dose screen, Non-small Cell Lung Cancer; type: cell-based; conditions: Homo sapiens; NCI-H23, Non-small Cell Lung Cancer; five-dose screen; read-out: GI50
NCI-H460 = assay: NCI60 five-dose screen, Non-small Cell Lung Cancer; type: cell-based; conditions: Homo sapiens; NCI-H460, Non-small Cell Lung Cancer; five-dose screen; read-out: GI50
NCI-H522 = assay: NCI60 five-dose screen, Non-small Cell Lung Cancer; type: cell-based; conditions: Homo sapiens; NCI-H522, Non-small Cell Lung Cancer; five-dose screen; read-out: GI50
HCC-2998 = assay: NCI60 five-dose screen, Colon Cancer; type: cell-based; conditions: Homo sapiens; HCC-2998, Colon Cancer; five-dose screen; read-out: GI50
HCT-15 = assay: NCI60 five-dose screen, Colon Cancer; type: cell-based; conditions: Homo sapiens; HCT-15, Colon Cancer; five-dose screen; read-out: GI50
HT29 = assay: NCI60 five-dose screen, Colon Cancer; type: cell-based; conditions: Homo sapiens, HT-29; HT29, Colon Cancer; five-dose screen; read-out: GI50
SF-268 [11] = assay: NCI60 five-dose screen, CNS Cancer; type: cell-based; conditions: Homo sapiens; SF-268, CNS Cancer; five-dose screen; read-out: GI50
SNB-75 = assay: NCI60 five-dose screen, CNS Cancer; type: cell-based; conditions: Homo sapiens; SNB-75, CNS Cancer; five-dose screen; read-out: GI50
U251 = assay: NCI60 five-dose screen, CNS Cancer; type: cell-based; conditions: Homo sapiens, U-251; U251, CNS Cancer; five-dose screen; read-out: GI50
LOX IMVI [12] = assay: NCI60 five-dose screen, Melanoma; type: cell-based; conditions: Homo sapiens, Melanoma, five-dose screen, read-out: GI50
MALME-3M = assay: NCI60 five-dose screen, Melanoma; type: cell-based; conditions: Homo sapiens; MALME-3M, Melanoma; five-dose screen; read-out: GI50
MDA-MB-435 = assay: NCI60 five-dose screen, Melanoma; type: cell-based; conditions: Homo sapiens; MDA-MB-435, Melanoma; five-dose screen; read-out: GI50
SK-MEL-5 = assay: NCI60 five-dose screen, Melanoma; type: cell-based; conditions: Homo sapiens; SK-MEL-5, Melanoma; five-dose screen; read-out: GI50
UACC-257 = assay: NCI60 five-dose screen, Melanoma; type: cell-based; conditions: Homo sapiens; UACC-257, Melanoma; five-dose screen; read-out: GI50
IGROV1 = assay: NCI60 five-dose screen, Ovarian Cancer; type: cell-based; conditions: Homo sapiens, IGROV-1; IGROV1, Ovarian Cancer; five-dose screen; read-out: GI50
OVCAR-4 [13] = assay: NCI60 five-dose screen, Ovarian Cancer; type: cell-based; conditions: Homo sapiens; OVCAR-4, Ovarian Cancer; five-dose screen; read-out: GI50
OVCAR-8 = assay: NCI60 five-dose screen, Ovarian Cancer; type: cell-based; conditions: Homo sapiens; OVCAR-8, Ovarian Cancer; five-dose screen; read-out: GI50
NCI/ADR-RES [14] = assay: NCI60 five-dose screen, Ovarian Cancer; type: cell-based; conditions: Homo sapiens, Ovarian Cancer, five-dose screen, read-out: GI50
CAKI-1 = assay: NCI60 five-dose screen, Renal Cancer; type: cell-based; conditions: Homo sapiens; CAKI-1, Renal Cancer; five-dose screen; read-out: GI50
TK-10 = assay: NCI60 five-dose screen, Renal Cancer; type: cell-based; conditions: Homo sapiens; TK-10, Renal Cancer; five-dose screen; read-out: GI50
T-47D [15] = assay: NCI60 five-dose screen, Breast Cancer; type: cell-based; conditions: Homo sapiens, T47D; T-47D, Breast Cancer; five-dose screen; read-out: GI50

Q: For `CCC12C=CCN3CCC4(c5ccc(OC)cc5N(C)C4C(O)(C(=O)OC)C1OC(=O)CCCBr)C32` (centres unmarked) [Compound 14, 17-(O-4-bromobutanoyl)vindoline], which activity at 10 µM (SR) is on record?
A: 98.4%

Q: And the activity at 10 µM (HOP-92 [1])?
A: 77.6%

Q: What about the activity at 10 µM (NCI-H226 [2]) of the same compound?
A: 96%

Q: What about the activity at 10 µM (SF-268 [3]) of the same compound?
A: 83.2%

Q: And the activity at 10 µM (LOX IMVI [4])?
A: 88.6%

Q: And the activity at 10 µM (UACC-62)?
A: 83.8%

Q: What about the activity at 10 µM (OVCAR-4 [5]) of the same compound?
A: 83.9%

Q: And the activity at 10 µM (OVCAR-5)?
A: 101%

Q: What about the activity at 10 µM (NCI/ADR-RES [6]) of the same compound?
A: 89.2%

Q: What about the activity at 10 µM (SK-OV-3) of the same compound?
A: 101%

Q: And the activity at 10 µM (RXF 393)?
A: 99.5%

Q: And the activity at 10 µM (UO-31)?
A: 82.5%

Q: And the activity at 10 µM (PC-3)?
A: 79%

Q: And the activity at 10 µM (DU-145)?
A: 99.6%

Q: What about the activity at 10 µM (MDA-MB-231/ATCC) of the same compound?
A: 90.6%

Q: And the activity at 10 µM (BT-549)?
A: 99.1%

Q: And the activity at 10 µM (T-47D [7])?
A: 77.2%

Q: What about the activity at 10 µM (MDA-MB-468) of the same compound?
A: 95.7%

Q: What about the “antiproliferative effect (in words)” value ([8]; 10 μM one-dose, NCI60) of the same compound?
A: a notable antiproliferative effect was not shown

Q: And the activity at 10 µM [8]?
A: 92.5%

Q: What does the source list for `CC[C@]12C=CCN3CC[C@@]4(c5ccc(OC)cc5N(C)[C@H]4[C@@](O)(C(=O)OC)[C@@H]1OC(=O)CCC(=O)N1CCN(C(c4ccc(F)cc4)c4ccc(F)cc4)CC1)[C@@H]32` [Compound 31]?
A: GI50 (HL-60(TB)): 1930 nM; GI50 (K-562): 2920 nM; GI50 (HOP-92 [9]): 1990 nM; GI50 (NCI-H226 [10]): 1840 nM; GI50 (NCI-H23): 2700 nM; GI50 (NCI-H460): 1930 nM; GI50 (NCI-H522): 2040 nM; GI50 (HCC-2998): 1240 nM; GI50 (HCT-15): 2450 nM; GI50 (HT29): 1760 nM; GI50 (SF-268 [11]): 2980 nM; GI50 (SNB-75): 2110 nM; GI50 (U251): 2780 nM; GI50 (LOX IMVI [12]): 1800 nM; GI50 (MALME-3M): 2200 nM; GI50 (MDA-MB-435): 2700 nM; GI50 (SK-MEL-5): 1840 nM; GI50 (UACC-257): 2700 nM; GI50 (IGROV1): 2500 nM; GI50 (OVCAR-4 [13]): 1620 nM; GI50 (OVCAR-8): 3180 nM; GI50 (NCI/ADR-RES [14]): 1950 nM; GI50 (CAKI-1): 3070 nM; GI50 (TK-10): 2570 nM; GI50 (T-47D [15]): 2470 nM; activity at 10 µM (HOP-92 [1]): -44.9%; activity at 10 µM (NCI-H226 [2]): -32.4%; activity at 10 µM (SF-268 [3]): 7.32%; activity at 10 µM (LOX IMVI [4]): -56%; activity at 10 µM (UACC-62): -84.3%; activity at 10 µM (OVCAR-4 [5]): -34.6%; activity at 10 µM (NCI/ADR-RES [6]): -62.1%; activity at 10 µM (SK-OV-3): -15.6%; activity at 10 µM (RXF 393): -56.3%; activity at 10 µM (PC-3): -28.5%; activity at 10 µM (DU-145): -3.52%; activity at 10 µM (BT-549): -60.6%; activity at 10 µM (MDA-MB-468): -69.1%; activity at 10 µM [8]: -41.8%
